Data as given in patent publication US20260293901A1 (priority 2023, published 2026).

How the values were obtained:
Plasmopara viticola = format: in vivo; details: 200 ppm; grape vine leaf disks, preventative; inoculated 1 day after application; assessed 6-8 days after application
Pythium ultimum = experiment: Pythium ultimum/Liquid Culture (Seedling Damping Off); format: cell-based; details: Globisporangium ultimum, read-out: control of Pythium ultimum (inhibition of growth determined photometrically)
Phytophthora infestans = format: in vivo; details: 200 ppm; tomato leaf disks, preventative; inoculated 1 day after application; assessed 5-7 days after application

| SMILES | control of Plasmopara viticola (percent disease control compared to untreated) (Plasmopara viticola) | inhibition at 20 ppm (Pythium ultimum) [%] | control of Phytophthora infestans (percent disease control compared to untreated) (Phytophthora infestans) |
| --- | --- | --- | --- |
| COC(=O)Nc1ccc(-c2cnc3c(C)cc(C(=O)N(C)c4ccc(F)c(OC)c4)nn23)cn1 [Compound 4, methyl N-[5-[6-[(4-fluoro-3-methoxy-phenyl)-methyl-carbamoyl]-8-methyl-imidazo[1,2-b]pyridazin-3-yl]-2-pyridyl]carbamate] | at least 80% | ≥ 80 | at least 80% |
| COC(=O)Nc1ccc(-c2cnc3c(C)cc(C(=O)N(C)c4ccc(F)cc4)nn23)cn1 [Compound 3, methyl N-[5-[6-[(4-fluorophenyl)-methyl-carbamoyl]-8-methyl-imidazo[1,2-b]pyridazin-3-yl]-2-pyridyl]carbamate] | at least 80% |  | at least 80% |
| COC(=O)Nc1ccc(-c2cnc3c(C)cc(C(=O)N4CCCc5cc(F)ccc54)nn23)cn1 [Compound 2, methyl N-[5-[6-(6-fluoro-3,4-dihydro-2H-quinoline-1-carbonyl)-8-methyl-imidazo[1,2-b]pyridazin-3-yl]-2-pyridyl]carbamate] |  |  | at least 80% |
| COC(=O)Nc1ccc(-c2cnc3ccc(C(=O)N(C)c4ccc(F)c(OC)c4)nn23)cn1 [Compound 8, methyl N-[5-[6-[(4-fluoro-3-methoxy-phenyl)-methyl-carbamoyl]imidazo[1,2-b]pyridazin-3-yl]-2-pyridyl]carbamate] | at least 80% | ≥ 80 | at least 80% |
| COC(=O)Nc1ccc(-c2cnc3c(C)cc(C(=O)N(C)c4ccc(F)c(C)c4)nn23)cn1 [Compound 1, methyl N-[5-[6-[(4-fluoro-3-methyl-phenyl)-methyl-carbamoyl]-8-methyl-imidazo[1,2-b]pyridazin-3-yl]-2-pyridyl]carbamate] | at least 80% |  |  |
